What was measured:
[1] = system: IL-6 dependent RARα(+) human multiple myeloma cells U266; conditions: SCID mice, oral 10 mg/kg/day for 28 consecutive days, FIG. 2
[2] = Oil component (base) solubility test; format: physicochemical; conditions: in propylene glycol fatty acid ester
Procedure: Oil Component (Base) Solubility Test
(75% humidity), and at 60° C.

| Compound | growth of U266 cells (volume of tumor) [1] | solubility and stability in the dissolved solution [2] |
| --- | --- | --- |
| CC1=C(/C=C/C(C)=C/C=C/C(C)=C/C(=O)O)C(C)(C)CCC1 [ATRA, all-trans retinoic acid] | inhibited the growth |  |
| CC1(C)CCC(C)(C)c2cc(NC(=O)c3ccc(C(=O)O)cc3)ccc21 [Tamibarotene, 4-[(5,6,7,8-tetrahydro-5,5,8,8-tetramethyl-2-naphthalenyl)carbamoyl]benzoic acid] |  | optimum |
